Data on 14 compounds can be found in patent publication US8969554B2, “6-acyl-1,2,4-triazine-3,5-dione derivative and herbicides” (Kumiai Chemical Industry Co., Ltd., priority 2010, dated 2015).

Common to all, as to format: in vivo
Common to all, as to set-up: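 index 0 to 10 in 10% steps of herbicidal effect with 10 meaning complete death and 0 below 10%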

In experiment [1] the test system is Indian millet. Nature of the experiment: Herbicidal activity by field soil treatment (Test example 2). Conditions: 1000 g effective component per hectare, day 21 after the treatment. In outline:
(§1)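 Seeds were sown in field soil in 80 cm^2 pots and covered with soil. A water-diluted wettable powder was then sprayed onto the soil surface at 1000 liters per hectare, delivering 1000 g active ingredient per hectare. Plants grew in a greenhouse, and herbicidal effect was scored against set criteria 21 days after treatment.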

In experiment [2] the test system is A. retroflexus. The experiment is described as above. Particulars: 1000 g effective component per hectare, day 21 after the treatment. In outline:
as §1

Experiment [3] has as its system Echinochloa crus-galli. The description is as above. Conditions: 1000 g effective component per hectare, day 21 after the treatment. In outline:
as §1

For experiment [4], the system named is Echinochloa crus-galli. In words: Herbicidal activity by field foliage treatment (Test example 3). Conditions: 1000 g effective component per hectare, day 14 after the treatment. In outline: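 Potted field-soil plants grown 2 weeks in a greenhouse were sprayed over the whole foliage with diluted wettable powder at 1000 L/ha, delivering 1000 g active ingredient per hectare. Herbicidal effect scored by visual criteria 14 days after treatment.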

Another experiment concerns Scirpus juncoides Rocxb. In words: Herbicidal activity by paddy field soil treatment (Test Example 1). Particulars: applied on water surface, 1000 g of effective component per hectare, day 21 after the treatment. In outline:
(§2)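 Seeds were sown in puddled paddy soil in pots flooded to 3 cm water depth; the next day a water-diluted wettable powder was applied to the water surface at 1000 g active ingredient/ha. Plants were grown in a greenhouse and herbicidal effect scored by graded criteria on day 21 after treatment.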

In the next experiment the test system is Echinochloa oryzicola. The experiment is described as above. Conditions: 1000 g of effective component per hectare, evaluated on day 21 after the treatment, criteria of Table 72. In outline:
as §2

The subject of the next experiment is Monochoria vaginalis. Described as above. Conditions: 1000 g of effective component per hectare, evaluated on day 21 after the treatment, criteria of Table 72. In outline: as §2
In experiment [5] the test system is Indian millet. Nature of the experiment: Herbicidal activity by field foliage treatment (Test example 3). Conditions: 1000 g effective component per hectare, day 14 after the treatment. In outline: (§3)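 Plants were grown from seed in field soil in a greenhouse for 2 weeks, then sprayed over the whole foliage with a water-diluted wettable powder at 1000 L/ha spray volume, delivering 1000 g active ingredient per hectare. Herbicidal effect was scored on day 14 after treatment.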

Experiment [6] deals with A. retroflexus. Described as above. Particulars: 1000 g effective component per hectare, day 14 after the treatment. In outline: as §3

Turning to `Cn1nc(C(=O)C2=C(O)CCCC2=O)c(=O)n(-c2cccc(C(F)(F)F)c2)c1=O` [I-64], the “herbicidal effect index, Abutilon theophrasti” value in the experiment on Indian millet [1] and with Indian millet [5] was 10 in each case. The “herbicidal effect index, Amaranthus retroflexus” value in the experiment on A. retroflexus [2] and in the experiment with A. retroflexus [6] was 10 throughout. The “herbicidal effect index, Echinochloa crus-galli” value with Echinochloa crus-galli [3] and in the experiment with Echinochloa crus-galli [4] was 10 each time. Further, the “herbicidal effect index, S. juncoides Rocxb.” value in the experiment with Scirpus juncoides Rocxb. stood at 10. Also, the “Herbicidal effects index number, Echinochloa oryzicola” value in the experiment with Echinochloa oryzicola is 10. The “Herbicidal effects index number, Monochoria vaginalis” value in the experiment with Monochoria vaginalis came to 10.

On to `CCON=C(C)Cn1c(=O)c(C(=O)O)nn(C)c1=O` [V-371], for which the “herbicidal effect index, Abutilon theophrasti” value was found to be 10 in the experiment with Indian millet [1] and 9 in the experiment with Indian millet [5]. Besides, the “herbicidal effect index, Amaranthus retroflexus” value in the experiment on A. retroflexus [2] and with A. retroflexus [6] was 10 each time. For the same compound, the “herbicidal effect index, Echinochloa crus-galli” value in the experiment on Echinochloa crus-galli [3] was found to be 9; in the experiment on Echinochloa crus-galli [4], 8. For the same compound, the “herbicidal effect index, S. juncoides Rocxb.” value in the experiment with Scirpus juncoides Rocxb. is given as 9. In the experiment on Echinochloa oryzicola, the “Herbicidal effects index number, Echinochloa oryzicola” value is recorded as 10. Also, the “Herbicidal effects index number, Monochoria vaginalis” value in the experiment on Monochoria vaginalis is 10.

As for `COc1ccc(-n2c(=O)c(C(=O)C3=C(O)CCCC3=O)nn(C)c2=O)cc1C` [I-149], the “herbicidal effect index, Abutilon theophrasti” value in the experiment on Indian millet [1] and in the experiment with Indian millet [5] was 10 throughout. For the same compound, the “herbicidal effect index, Amaranthus retroflexus” value with A. retroflexus [2] and with A. retroflexus [6] was 10 each time. The “herbicidal effect index, Echinochloa crus-galli” value in the experiment on Echinochloa crus-galli [3] and with Echinochloa crus-galli [4] was 8 in each case. Moreover, in the experiment on Scirpus juncoides Rocxb., the “herbicidal effect index, S. juncoides Rocxb.” value came to 10. In the experiment on Echinochloa oryzicola, the “Herbicidal effects index number, Echinochloa oryzicola” value came out at 9. Also, the “Herbicidal effects index number, Monochoria vaginalis” value with Monochoria vaginalis stood at 10.

For `COc1ccc(-n2c(=O)c(C(=O)C3=C(O)CCCC3=O)nn(C)c2=O)cn1` [I-287], the “herbicidal effect index, Abutilon theophrasti” value in the experiment on Indian millet [1] and in the experiment on Indian millet [5] was 9 in each case. Besides, the “herbicidal effect index, Amaranthus retroflexus” value with A. retroflexus [2] and with A. retroflexus [6] was 10 in each case. For the same compound, the “herbicidal effect index, Echinochloa crus-galli” value with Echinochloa crus-galli [3] was 10; with Echinochloa crus-galli [4] it was 8. Further, the “herbicidal effect index, S. juncoides Rocxb.” value with Scirpus juncoides Rocxb. is 10. For the same compound, the “Herbicidal effects index number, Echinochloa oryzicola” value with Echinochloa oryzicola was 10. Further, the “Herbicidal effects index number, Monochoria vaginalis” value in the experiment with Monochoria vaginalis is on record as 10.

Regarding `CCON=C(C)Cn1c(=O)c(C(=O)C2=C(O)CCCC2=O)nn(C)c1=O` [I-478], the “herbicidal effect index, Abutilon theophrasti” value in the experiment with Indian millet [1] came out at 10; with Indian millet [5], 9. In addition, the “herbicidal effect index, Amaranthus retroflexus” value in the experiment on A. retroflexus [2] and in the experiment on A. retroflexus [6] was 10 throughout. The “herbicidal effect index, Echinochloa crus-galli” value is listed as 9 in the experiment with Echinochloa crus-galli [3] and 8 with Echinochloa crus-galli [4]. Moreover, in the experiment on Scirpus juncoides Rocxb., the “herbicidal effect index, S. juncoides Rocxb.” value came out at 9. Also, in the experiment on Echinochloa oryzicola, the “Herbicidal effects index number, Echinochloa oryzicola” value worked out at 10. Besides, in the experiment with Monochoria vaginalis, the “Herbicidal effects index number, Monochoria vaginalis” value is 10.

On to `COc1cccc(-n2c(=O)c(C(=O)C3=C(O)CCCC3=O)nn(C)c2=O)c1` [I-61], for which the “herbicidal effect index, Abutilon theophrasti” value in the experiment with Indian millet [1] and in the experiment on Indian millet [5] was 10 in each case. The “herbicidal effect index, Amaranthus retroflexus” value in the experiment with A. retroflexus [2] and in the experiment on A. retroflexus [6] was 10 throughout. Moreover, the “herbicidal effect index, Echinochloa crus-galli” value is on record as 8 with Echinochloa crus-galli [3] and 9 with Echinochloa crus-galli [4]. Also, the “herbicidal effect index, S. juncoides Rocxb.” value in the experiment on Scirpus juncoides Rocxb. came out at 10. The “Herbicidal effects index number, Echinochloa oryzicola” value with Echinochloa oryzicola was determined as 8. Further, the “Herbicidal effects index number, Monochoria vaginalis” value in the experiment with Monochoria vaginalis is listed as 10.

In the case of `Cc1cccc(F)c1-n1c(=O)c(C(=O)C2=C(O)CCCC2=O)nn(C)c1=O` [I-110], the “herbicidal effect index, Abutilon theophrasti” value was 10 in the experiment with Indian millet [1] and 9 in the experiment with Indian millet [5]. Also, the results for the “herbicidal effect index, Amaranthus retroflexus” value with A. retroflexus [2] and in the experiment with A. retroflexus [6] were 10 and 9, respectively. Besides, the “herbicidal effect index, Echinochloa crus-galli” value in the experiment with Echinochloa crus-galli [3] is 7; in the experiment on Echinochloa crus-galli [4], 9. Moreover, the “herbicidal effect index, S. juncoides Rocxb.” value in the experiment with Scirpus juncoides Rocxb. turned out to be 10. Also, the “Herbicidal effects index number, Echinochloa oryzicola” value in the experiment with Echinochloa oryzicola is given as 10. Besides, the “Herbicidal effects index number, Monochoria vaginalis” value with Monochoria vaginalis came out at 10.

Consider `COc1cc(OC)nc(-n2c(=O)c(C(=O)C3=C(O)CCCC3=O)nn(C)c2=O)n1` [I-273], for which the “herbicidal effect index, Abutilon theophrasti” value in the experiment with Indian millet [1] worked out at 7; in the experiment with Indian millet [5], 9. Besides, the “herbicidal effect index, Amaranthus retroflexus” value in the experiment with A. retroflexus [2] and with A. retroflexus [6] was 10 each time. Also, the “herbicidal effect index, Echinochloa crus-galli” value in the experiment on Echinochloa crus-galli [3] was 9; in the experiment on Echinochloa crus-galli [4], 10. Further, the “herbicidal effect index, S. juncoides Rocxb.” value in the experiment with Scirpus juncoides Rocxb. stood at 10. For the same compound, the “Herbicidal effects index number, Echinochloa oryzicola” value in the experiment with Echinochloa oryzicola was found to be 9. For the same compound, the “Herbicidal effects index number, Monochoria vaginalis” value in the experiment with Monochoria vaginalis was found to be 9.

For `COc1cc(Cl)cc(-n2c(=O)c(C(=O)C3=C(O)CCCC3=O)nn(C)c2=O)c1` [I-120], the “herbicidal effect index, Abutilon theophrasti” value in the experiment on Indian millet [1] and in the experiment on Indian millet [5] was 9 each time. Besides, the “herbicidal effect index, Amaranthus retroflexus” value with A. retroflexus [2] and in the experiment on A. retroflexus [6] was 10 throughout. Further, the results for the “herbicidal effect index, Echinochloa crus-galli” value with Echinochloa crus-galli [3] and in the experiment on Echinochloa crus-galli [4] were 8 and 9, respectively. The “herbicidal effect index, S. juncoides Rocxb.” value in the experiment with Scirpus juncoides Rocxb. was found to be 10. Moreover, in the experiment with Echinochloa oryzicola, the “Herbicidal effects index number, Echinochloa oryzicola” value came to 8. Besides, the “Herbicidal effects index number, Monochoria vaginalis” value in the experiment on Monochoria vaginalis was 10.

Regarding `Cc1cc(F)cc(-n2c(=O)c(C(=O)C3=C(O)CCCC3=O)nn(C)c2=O)c1` [I-106], the entries for the “herbicidal effect index, Abutilon theophrasti” value with Indian millet [1] and in the experiment on Indian millet [5] were 10 and 9, respectively. In addition, the “herbicidal effect index, Amaranthus retroflexus” value in the experiment on A. retroflexus [2] and with A. retroflexus [6] was 10 each time. For the same compound, the “herbicidal effect index, Echinochloa crus-galli” value in the experiment on Echinochloa crus-galli [3] and in the experiment with Echinochloa crus-galli [4] was 10 each time. Besides, the “herbicidal effect index, S. juncoides Rocxb.” value with Scirpus juncoides Rocxb. came to 10. In the experiment on Echinochloa oryzicola, the “Herbicidal effects index number, Echinochloa oryzicola” value is recorded as 10. For the same compound, the “Herbicidal effects index number, Monochoria vaginalis” value in the experiment on Monochoria vaginalis is listed as 10.

In the case of `Cc1cc(-n2c(=O)c(C(=O)C3=C(O)CCCC3=O)nn(C)c2=O)ccc1F` [I-115], the “herbicidal effect index, Abutilon theophrasti” value in the experiment on Indian millet [1] stood at 9; in the experiment with Indian millet [5], 10. For the same compound, the “herbicidal effect index, Amaranthus retroflexus” value in the experiment with A. retroflexus [2] came out at 9; in the experiment on A. retroflexus [6], 10. Moreover, the “herbicidal effect index, Echinochloa crus-galli” value in the experiment with Echinochloa crus-galli [3] turned out to be 9; in the experiment with Echinochloa crus-galli [4] it was 10. Besides, in the experiment on Scirpus juncoides Rocxb., the “herbicidal effect index, S. juncoides Rocxb.” value came to 10. Besides, the “Herbicidal effects index number, Echinochloa oryzicola” value in the experiment on Echinochloa oryzicola worked out at 10. For the same compound, the “Herbicidal effects index number, Monochoria vaginalis” value in the experiment with Monochoria vaginalis was 10.

On to `Cc1cc(-n2c(=O)c(C(=O)C3=C(O)CCCC3=O)nn(C)c2=O)ccc1Cl` [I-135], for which the “herbicidal effect index, Abutilon theophrasti” value in the experiment on Indian millet [1] was 9; in the experiment with Indian millet [5] it was 10. Also, the “herbicidal effect index, Amaranthus retroflexus” value in the experiment on A. retroflexus [2] and in the experiment on A. retroflexus [6] was 10 in each case. Besides, the entries for the “herbicidal effect index, Echinochloa crus-galli” value with Echinochloa crus-galli [3] and in the experiment with Echinochloa crus-galli [4] were 9 and 10, respectively. Besides, the “herbicidal effect index, S. juncoides Rocxb.” value with Scirpus juncoides Rocxb. stood at 10. In addition, in the experiment on Echinochloa oryzicola, the “Herbicidal effects index number, Echinochloa oryzicola” value stood at 10. Moreover, the “Herbicidal effects index number, Monochoria vaginalis” value in the experiment on Monochoria vaginalis is 10.

Turning to `Cn1nc(C(=O)C2=C(O)CCCC2=O)c(=O)n(-c2ccc(Cl)cc2)c1=O` [I-53], the “herbicidal effect index, Abutilon theophrasti” value in the experiment on Indian millet [1] and in the experiment with Indian millet [5] was 10 throughout. The “herbicidal effect index, Amaranthus retroflexus” value in the experiment with A. retroflexus [2] and with A. retroflexus [6] was 10 in each case. The “herbicidal effect index, Echinochloa crus-galli” value in the experiment with Echinochloa crus-galli [3] and in the experiment on Echinochloa crus-galli [4] was 8 in each case. The “herbicidal effect index, S. juncoides Rocxb.” value in the experiment with Scirpus juncoides Rocxb. is listed as 10. In the experiment with Echinochloa oryzicola, the “Herbicidal effects index number, Echinochloa oryzicola” value worked out at 10. In the experiment on Monochoria vaginalis, the “Herbicidal effects index number, Monochoria vaginalis” value is given as 7.

In the case of `CCN(c1ccccc1)n1c(=O)c(C(=O)O)nn(C)c1=O` [V-368], the “herbicidal effect index, Abutilon theophrasti” value in the experiment on Indian millet [1] is on record as 10; in the experiment on Indian millet [5], 9. Also, the “herbicidal effect index, Amaranthus retroflexus” value with A. retroflexus [2] is listed as 10; in the experiment on A. retroflexus [6] it was 9. Further, the “herbicidal effect index, Echinochloa crus-galli” value in the experiment with Echinochloa crus-galli [3] and with Echinochloa crus-galli [4] was 7 in each case. The “herbicidal effect index, S. juncoides Rocxb.” value with Scirpus juncoides Rocxb. is 10. Moreover, in the experiment with Echinochloa oryzicola, the “Herbicidal effects index number, Echinochloa oryzicola” value is given as 10. Also, the “Herbicidal effects index number, Monochoria vaginalis” value with Monochoria vaginalis was determined as 10.
